{"source": "patent US12102432B2", "about": "“Uses of transdermal glomerular filtration rate measurement in continuous renal replacement therapy” (MediBeacon Inc., priority 2018, dated 2024)", "key": {"[1]": {"assay": "In vitro continuous hemofiltration (CVVH) model, sieving coefficient", "type": "in vitro ADME, bovine", "conditions": "for Mean sieving coefficient: CVVH", "experimental": "The procedure for the CVVH study was conducted using the model CVVH system illustrated in FIG. 5. The CLTM of urea and MB-102 were evaluated with different blood flow rates, ultrafiltration rate (Quf) and hemodiafilters (Table 1). In a closed-loop system, the formed effluent was returned to the blood as a post-filter replacement fluid downstream from the post-hemodiafilter blood sampling port. Pre- and post-hemodiafilter blood samples, and effluent samples were collected concurrently. Six experiments were conducted for each hemodiafilter, and new hemodiafilters and CRRT apparatus were used for each experiment. Sieving coefficient (SC) and CLTM were calculated as follows:\n[formula] where Sc is the sieving coefficient; Cuf is the concentration in the effluent; Ca is the concentration of the solute in the pre-filter; and Cv is the concentration of the solute in the post-filter. CLconv=SC×QUF Equation (4) wherein CLconv is the convective clearance for the post-filter replacement; QUF is the ultrafiltration rate.\n(§1) All blood samples were collected and centrifuged at 3000 rpm for 10 minutes. The plasma and effluent samples were transferred to cryovials in duplicate and stored at −80° C. until analysis. BUN concentrations were analyzed with Advia 1800 (Siemens Healthcare Diagnostic Inc., Tarrytown, N.Y., USA) having a lower limit of quantification of 5 mg/dL.\n(§2) Similarly, six CVVH and CVVHD experiments with each hemodiafilter were used to detect a 25% difference in MB-102 CLTM between hemodiafilters. Assumptions used in these calculations included: a power of 90% and a standard deviation of 10% with a significance level of p<0.05. A two-tailed, unpaired t-test was used to compare differences between the two hemodiafilters, and the analysis of variance was used to compare different QUF and Qd within each hemodiafilter type."}, "[2]": {"assay": "In vitro continuous hemodialysis (CVVHD) model, saturation coefficient", "type": "in vitro ADME, bovine", "conditions": "for Saturation coefficient (mean ± SD): blood flow 200 mL/min", "experimental": "For CVVHD experiments, the CLTM was assessed using a previously validated in vitro CVVHD model as illustrated in FIG. 6. Commonly used effluent flow rates of 16, 33, 50, and 100 mL/min, and a blood flow rate of 200 mL/min were used. Effluent was prepared according to directions from the manufacturer by mixing sodium bicarbonate powder (NATURALYTE® 4000, Fresenius Medical Care, Waltham, Mass., USA) with distilled water in a 45:1 ratio. After adding MB-102 and urea to the blood, it was recirculated through the circuit for 5 min for uniform coating of the extracorporeal circuit. A single-pass mode of the CVVHD procedure with four different flow rates was run in random order for each hemodiafilter. Blood samples were collected from the pre- and post-filter ports, and spent effluent samples were taken from the effluent port 5 min after initiation of the CVVHD experiments at all four effluent flow rates. These experiments were conducted on 6 new hemodiafilters and CRRT tubing sets. Saturation coefficient (SA) and CLTM were calculated as follows:\n[formula] CLdiff=(SA×Qd) Equation (6)\nwhere SA is the saturation coefficient; CUF is the concentration in the effluent; Ca is the concentration of the solute in the pre-filter; CV is the concentration of the solute in the post-filter; CLdiff is the diffusion clearance for post-filter replacement; Qd is the effluent flow rate.\nas §1, §2"}, "[3]": {"assay": "In vivo clearance by CVVHD in porcine model with bilateral nephrectomy", "design": "species or system Swine"}, "[4]": {"assay": "Adsorption of MB-102 to CRRT apparatus, in vitro CVVH model", "type": "in vitro ADME, bovine", "conditions": "for mean percent change at the end of experiment: average of 6 experiments, 60 min", "experimental": "As an initial step, it was determined if the compound MB-102 adsorbs onto the hemodiafilter, tubing or other parts of the CRRT instrument. This study used a continuous venovenous hemofiltration (CVVH) configuration to assess MB-102 adsorptive clearance with a previously validated in vitro CVVH model using 1 L of pH regulated, citrate-anti-coagulated bovine blood. Using a Braun DIAPACT™ CRRT system, two different hemodiafilters were tested: the HF1400 and the M150 hemodiafilters. New bovine blood, hemodiafilters, and CRRT tubing sets were used in each experiment. The blood was continuously stirred and maintained at 37° C. in a water bath during all experiments. Reconstituted MB-102 was added to the blood to achieve a final concentration of ˜6.2 mg/L. Urea was used as a control and added to the blood to produce a blood urea nitrogen (BUN) concentration of ˜75 mg/dL. Blood flow rates of 200 mL/min with an ultrafiltration rate (Quf) of 33 mL/min were tested. This maximized MB-102 contact with the membranes, both on the blood side and via convection through the hemodiafilter membrane. A closed system was developed to maintain a constant volume in the extracorporeal system. The effluent was used as the replacement fluid which was returned to the blood as a post-filter replacement fluid to maintain a constant blood volume. The CRRT instrument was primed with normal saline before operation, consequently the urea and MB-102 dilution caused by the residual priming solution was accounted for. Blood samples were collected from the pre-filter port at 0 (baseline), 5 (at which time mixing was complete), 10, 20, 30, and 60 minutes. Each experiment was repeated six times with new hemodiafilters and tubing sets.\nEquations used to calculate the dilution factor and adsorption are as follows:\n[formula] wherein C0 is the concentration of MB-102 in the pre-filter at time=0 minutes; and C60 is the concentration of MB-102 in the pre-filter at time=60 minutes.\n[formula] where [Urea0] is the urea concentration in the pre-filter at time=0 minutes; and [Urea60] is the urea concentration in the pre-filter at time=60 minutes.\nas §1, with “mg/dL. […]” for “mg/dL.”"}, "[5]": {"conditions": "stated as pharmacokinetic parameter, no test described; cited from earlier work"}, "[6]": {"conditions": "assembly on chest (QLS26), blood flow rate 100, effluent flow rate 20 mL/min, 1st of four regions"}, "[7]": {"conditions": "assembly on chest (QLS26), blood flow rate 200, effluent flow rate 35 mL/min, 2nd of four regions"}, "[8]": {"conditions": "assembly on chest (QLS26), blood flow rate 200, effluent flow rate 35 mL/min, 4th of four regions"}, "[9]": {"conditions": "assembly on sternum (QLS25), blood flow rate 100, effluent flow rate 20 mL/min, 1st of four regions"}, "[10]": {"conditions": "assembly on sternum (QLS25), blood flow rate 100, effluent flow rate 20 mL/min, 3rd of four regions"}, "[11]": {"conditions": "assembly on sternum (QLS25), blood flow rate 200, effluent flow rate 35 mL/min, 2nd of four regions"}, "[12]": {"conditions": "assembly on sternum (QLS25), blood flow rate 200, effluent flow rate 35 mL/min, 4th of four regions"}}, "note": "“Also recorded” adds a separate entry of the source.", "data": [{"smiles": "Nc1nc(C(=O)N[C@H](CO)C(=O)O)c(N)nc1C(=O)N[C@H](CO)C(=O)O", "note": "[MB-102, (2R,2′R)-2,2′-((3,6-diaminopyrazine-2,5-dicarbonyl)bis(azanediyl))bis(3-hydroxypropanoic acid)]", "values": [{"measurement": "Mean sieving coefficient", "setting": "[1]; HF1400, ultrafiltration rate 16.7 mL/min", "value": "1.14 ± 0.06"}, {"measurement": "Mean sieving coefficient", "setting": "[1]; HF1400, ultrafiltration rate 33.3 mL/min", "value": "1.17 ± 0.03"}, {"measurement": "Mean sieving coefficient", "setting": "[1]; HF1400, ultrafiltration rate 50 mL/min", "value": "1.18 ± 0.05"}, {"measurement": "Mean sieving coefficient", "setting": "[1]; M150, ultrafiltration rate 16.7 mL/min", "value": "1.17 ± 0.12"}, {"measurement": "Mean sieving coefficient", "setting": "[1]; M150, ultrafiltration rate 33.3 mL/min", "value": "1.17 ± 0.07"}, {"measurement": "Mean sieving coefficient", "setting": "[1]; M150, ultrafiltration rate 50 mL/min", "value": "1.16 ± 0.07"}, {"measurement": "Sieving coefficient (SC)", "setting": "[1]; three different Quf, both hemodiafilters", "value": "approximately 1"}, {"measurement": "Saturation coefficient (mean ± SD)", "setting": "[2]; CVVHD, HF1400, Qd 16.7 mL/min", "value": "1.27 ± 0.07"}, {"measurement": "Saturation coefficient (mean ± SD)", "setting": "[2]; CVVHD, HF1400, Qd 33.3 mL/min", "value": "1.27 ± 0.09"}, {"measurement": "Saturation coefficient (mean ± SD)", "setting": "[2]; CVVHD, HF1400, Qd 50 mL/min", "value": "1.37 ± 0.07"}, {"measurement": "Saturation coefficient (mean ± SD)", "setting": "[2]; CVVHD, HF1400, Qd 100 mL/min", "value": "1.02 ± 0.20"}, {"measurement": "Saturation coefficient (mean ± SD)", "setting": "[2]; CVVHD, M150, Qd 16.7 mL/min", "value": "1.06 ± 0.17"}, {"measurement": "Saturation coefficient (mean ± SD)", "setting": "[2]; CVVHD, M150, Qd 33.3 mL/min", "value": "1.11 ± 0.06"}, {"measurement": "Saturation coefficient (mean ± SD)", "setting": "[2]; CVVHD, M150, Qd 50 mL/min", "value": "1.60 ± 0.06"}, {"measurement": "Saturation coefficient (mean ± SD)", "setting": "[2]; CVVHD, M150, Qd 100 mL/min", "value": "0.84 ± 0.04"}, {"measurement": "Saturation coefficient (SA), overall summary in text", "setting": "[2]; CVVHD, both hemodiafilters", "value": "approximately 1"}, {"measurement": "mean SA values", "setting": "[2]; low effluent flow rates (16-50 mL/min)", "value": "approximately unity"}, {"measurement": "MB-102 Clearance Rate Constant", "setting": "[3]; [6]", "value": 0.1439, "unit": "h⁻¹"}, {"measurement": "RDTC", "setting": "[3]; [6]", "value": 6.94, "unit": "h"}, {"measurement": "RDTC", "setting": "[3]; assembly on chest (QLS26), blood flow rate 100, effluent flow rate 20 mL/min, 3rd of four regions", "value": 11.87, "unit": "h"}, {"measurement": "MB-102 Clearance Rate Constant", "setting": "[3]; [7]", "value": 0.1769, "unit": "h⁻¹"}, {"measurement": "RDTC", "setting": "[3]; [7]", "value": 5.65, "unit": "h"}, {"measurement": "MB-102 Clearance Rate Constant", "setting": "[3]; [8]", "value": 0.1192, "unit": "h⁻¹"}, {"measurement": "RDTC", "setting": "[3]; [8]", "value": 8.39, "unit": "h"}, {"measurement": "MB-102 Clearance Rate Constant", "setting": "[3]; [9]", "value": 0.1174, "unit": "h⁻¹"}, {"measurement": "RDTC", "setting": "[3]; [9]", "value": 8.52, "unit": "h"}, {"measurement": "MB-102 Clearance Rate Constant", "setting": "[3]; [10]", "value": 0.0871, "unit": "h⁻¹"}, {"measurement": "RDTC", "setting": "[3]; [10]", "value": 11.48, "unit": "h"}, {"measurement": "MB-102 Clearance Rate Constant", "setting": "[3]; [11]", "value": 0.1870, "unit": "h⁻¹"}, {"measurement": "RDTC", "setting": "[3]; [11]", "value": 5.35, "unit": "h"}, {"measurement": "MB-102 Clearance Rate Constant", "setting": "[3]; [12]", "value": 0.1288, "unit": "h⁻¹"}, {"measurement": "RDTC", "setting": "[3]; [12]", "value": 7.76, "unit": "h"}, {"measurement": "adsorption to CRRT materials (tubing, hemodiafilters)", "setting": "[4]; HF1400 and M150 hemodiafilters", "value": "not observed; also recorded: does not bind"}, {"measurement": "mean percent change at the end of experiment", "setting": "[4]; HF1400 hemodiafilter", "value": 18.7, "unit": "%"}, {"measurement": "mean percent change at the end of experiment", "setting": "[4]; M150 hemodiafilter", "value": 18.9, "unit": "%"}, {"measurement": "protein binding", "setting": "[5]", "value": 0, "unit": "%"}]}]}
